O=c1[nH]c(=O)n([C@H]2C[C@H](O)[C@@H](CO)O2)cc1I
in water
Conditions	solubility (mole fraction)
302.2 K	0.00013
312.6 K	0.00021
317.8 K	0.00026
321.9 K	0.00039
323 K	0.00027
326.2 K	0.00041
332 K	0.00051
336 K	0.00047
343.1 K	0.00076
348.6 K	0.00089
349.8 K	0.00102

NC(=O)c1c(F)c(F)c(F)c(F)c1F
in water
Conditions	solubility (mole fraction)
291.8 K	0.00018
297.5 K	0.00026
303.3 K	0.00034
310.3 K	0.0006

O=C(Nc1c(F)c(F)c(F)c(F)c1F)C(=O)Nc1c(F)c(F)c(F)c(F)c1F
Conditions	solubility (mole fraction)
in 2-butanone, 284.2 K	0.00793
in 2-butanone, 287.1 K	0.00854
in 2-butanone, 289.4 K	0.00897
in 2-butanone, 293.4 K	0.00984
in 2-butanone, 303.3 K	0.0126
in 2-butanone, 314.7 K	0.0168
in 2-butanone, 323.9 K	0.0209
in 2-butanone, 327.2 K	0.023
in 2-butanone, 331.1 K	0.025
in 2-butanone, 333.4 K	0.0271
in 2-butanone, 336.9 K	0.029
in ethyl acetate, 281.1 K	0.00822
in ethyl acetate, 285.6 K	0.00934
in ethyl acetate, 291.9 K	0.0105
in ethyl acetate, 293.5 K	0.0116
in ethyl acetate, 303.7 K	0.0138
in ethyl acetate, 310.9 K	0.017
in ethyl acetate, 321.4 K	0.0206
in ethyl acetate, 325.1 K	0.0229
in ethyl acetate, 326.7 K	0.0251
in ethyl acetate, 332.2 K	0.0274
in ethyl acetate, 334.9 K	0.0295
